Data set [1] relates to Hepatitis C virus. The data set is described as follows: Antiviral activity against HCV genotype 1a expressing NS5A Y93H mutant assessed as decrease in HCV replicon RNA replication after 3 days by taqman assay based cell based replicon method. Type of data set: functional, organism-based, Hepacivirus hominis. The conditions noted are these: subtype 1a, 72 h. (In antiviral work, replicon cells carry a viral genome segment that copies itself.)

Data set [2] relates to Hepatitis C virus. The data set is described as follows: Antiviral activity against HCV genotype 1b assessed as decrease in HCV replicon RNA replication after 3 days by taqman assay based cell based replicon method. Type of data set: functional, organism-based, Hepacivirus hominis. The conditions noted are these: 72 h.
Data set [3] has as its system Hepatitis C virus. The data set is described as follows: Antiviral activity against HCV genotype 2a assessed as decrease in HCV replicon RNA replication after 3 days by taqman assay based cell based replicon method. The conditions noted are these: 72 h. Type of data set: functional, organism-based, Hepacivirus hominis.
Data set [4] deals with Hepatitis C virus. The data set is described as follows: Antiviral activity against HCV genotype 1a assessed as decrease in HCV replicon RNA replication after 3 days by taqman assay based cell based replicon method. The conditions noted are these: subtype 1a, 72 h. Type of data set: functional, organism-based, Hepacivirus hominis.
Data set [5] deals with Hepatitis C virus. The data set is described as follows: Antiviral activity against HCV genotype 3a assessed as decrease in HCV replicon RNA replication after 3 days by taqman assay based cell based replicon method. Type of data set: functional, organism-based, Hepacivirus hominis. Conditions: 72 h.
The subject of data set [6] is Hepatitis C virus. The data set is described as follows: Antiviral activity against HCV genotype 1b assessed as decrease in HCV replicon RNA replication after 3 days in presence of 10% FBS by taqman assay based cell based replicon method. Type of data set: functional, organism-based, Hepacivirus hominis. The conditions noted are these: 72 h.
Data set [7] concerns Hepatitis C virus. The data set is described as follows: Antiviral activity against HCV genotype 2a assessed as decrease in HCV replicon RNA replication after 3 days in presence of 10% FBS by taqman assay based cell based replicon method. Type of data set: functional, organism-based, Hepacivirus hominis. Conditions: 72 h.
Data set [8] concerns Hepatitis C virus. The data set is described as follows: Antiviral activity against HCV genotype 1a assessed as decrease in HCV replicon RNA replication after 3 days in presence of 10% FBS by taqman assay based cell based replicon method. Type of data set: functional, organism-based, Hepacivirus hominis. The conditions noted are these: subtype 1a, 72 h.
Data set [9] can be described thus: Clearance in Sprague-Dawley rat at 10 mg/kg, po or 2 mg/kg, iv. The conditions noted are these: in vivo. Type of data set: ADME, organism-based.
Data set [10] in a line: Half life in Sprague-Dawley rat at 10 mg/kg, po or 2 mg/kg, iv. Type of data set: ADME, organism-based. Conditions: in vivo.
Data set [11] is described as follows: Oral bioavailability in Sprague-Dawley rat at 10 mg/kg. Type of data set: ADME, organism-based. The conditions noted are these: in vivo.
A short description of data set [12]: AUC in Sprague-Dawley rat at 10 mg/kg, po. Type of data set: ADME, organism-based. Conditions: in vivo.

In general, EC50 refers to the concentration giving half of the maximal effect. As usually defined, the half-life is the time needed for the level to fall by half in the phase considered. Low readings indicate rapid decline, high ones slow decline. The term bioavailability denotes dose-corrected exposure relative to a reference, in per cent. A lower bioavailability goes with poor availability. For orientation: AUC means the area under the concentration-time curve, a measure of exposure. A high value points to more exposure.

The structures appear in SMILES notation.

With `COC(=O)N[C@H](C(=O)N1CCC[C@H]1c1ncc(-c2ccc3c(=O)c4cc(-c5cnc([C@@H]6CCCN6C(=O)[C@@H](NC(=O)OC)C(C)C)[nH]5)ccc4oc3c2)[nH]1)C(C)C`, the concentration giving a half-maximal response (EC50) in the data set with Hepatitis C virus [1] turned out to be 1730 nM; with Hepatitis C virus [2], 0.002 nM; in the data set with Hepatitis C virus [3] it was 0.1 nM; in the data set on Hepatitis C virus [4] it was 0.01 nM.
As to `COC(=O)N[C@H](C(=O)N1CCC[C@H]1c1ncc(-c2ccc3nc4cc(-c5cnc([C@@H]6CCCN6C(=O)[C@@H](NC(=O)OC)C(C)C)[nH]5)ccc4nc3c2)[nH]1)C(C)C`, the EC50 with Hepatitis C virus [1] turned out to be 61 nM; in the data set with Hepatitis C virus [2], 0.06 nM; in the data set with Hepatitis C virus [3] it was 0.1 nM; in the data set on Hepatitis C virus [5], 0.2 nM; with Hepatitis C virus [4] it was 0.06 nM.
Regarding `COC(=O)N[C@H](C(=O)N1CCC[C@H]1c1ncc(-c2ccc3c(c2)NC(=O)c2cc(-c4cnc([C@@H]5CCCN5C(=O)[C@@H](NC(=O)OC)C(C)C)[nH]4)ccc2O3)[nH]1)C(C)C`, the EC50 is 40 nM in the data set with Hepatitis C virus [6], above 1000 nM with Hepatitis C virus [7] and 950 nM with Hepatitis C virus [8].
For `COC(=O)N[C@H](C(=O)N1CCC[C@H]1c1ncc(-c2ccc3c(Cl)c4cc(-c5cnc([C@@H]6CCCN6C(=O)[C@@H](NC(=O)OC)C(C)C)[nH]5)ccc4cc3c2)[nH]1)C(C)C`, the EC50 was 66 nM in the data set on Hepatitis C virus [1]; 0.003 nM in the data set on Hepatitis C virus [2]; 0.01 nM with Hepatitis C virus [3]; 0.6 nM in the data set on Hepatitis C virus [5]; 0.05 nM with Hepatitis C virus [4].
As to `COC(=O)N[C@H](C(=O)N1CCC[C@H]1c1ncc(-c2ccc3c(c2)C(=O)c2ccc(-c4cnc([C@@H]5CCCN5C(=O)[C@@H](NC(=O)OC)C(C)C)[nH]4)cc2C3=O)[nH]1)C(C)C`, the concentration for a half-maximal effect (EC50) in the data set with Hepatitis C virus [1] worked out at 35 nM; with Hepatitis C virus [2], 0.007 nM; in the data set with Hepatitis C virus [3] it was 0.7 nM; with Hepatitis C virus [4], 0.09 nM.
On to `CCC1c2ccc(-c3cnc([C@@H]4CCCN4C(=O)[C@@H](NC(=O)OC)C(C)C)[nH]3)cc2Oc2ccc(-c3cnc([C@@H]4CCCN4C(=O)[C@@H](NC(=O)OC)C(C)C)[nH]3)cc21` (some centres not stated), for which the EC50 with Hepatitis C virus [1] was 24 nM; in the data set on Hepatitis C virus [2], 0.004 nM; in the data set with Hepatitis C virus [3], 0.005 nM; in the data set with Hepatitis C virus [5] it was 0.07 nM; in the data set with Hepatitis C virus [4], 0.02 nM.
The like results for `COC(=O)N[C@H](C(=O)N1CCC[C@H]1c1ncc(-c2ccc3c(C)c4cc(-c5cnc([C@@H]6CCCN6C(=O)[C@@H](NC(=O)OC)C(C)C)[nH]5)ccc4cc3c2)[nH]1)C(C)C` were, in that order, 42 nM, 0.005 nM, 0.005 nM, 0.5 nM and 0.02 nM.
For the compound `COC(=O)N[C@H](C(=O)N1CCC[C@H]1c1ncc(-c2ccc3c(c2)Oc2ccc(-c4cnc([C@@H]5CCCN5C(=O)[C@@H](NC(=O)OC)C(C)C)[nH]4)cc2S3(=O)=O)[nH]1)C(C)C`, the EC50 was 2380 nM with Hepatitis C virus [1]; 0.06 nM with Hepatitis C virus [2]; 0.8 nM with Hepatitis C virus [3]; 16 nM in the data set with Hepatitis C virus [5]; above 1 nM in the data set on Hepatitis C virus [4].
In data set [9], `COC(=O)N[C@H](C(=O)N1CCC[C@H]1c1ncc(-c2ccc3cc4cc(-c5cnc([C@@H]6CCCN6C(=O)[C@@H](NC(=O)OC)C(C)C)[nH]5)ccc4cc3c2)[nH]1)C(C)C` showed a clearance of 7.7 mL/min/kg. The compound further showed a half-life in [10] of 3 h. The EC50 came to 87 nM in the data set with Hepatitis C virus [1]; 0.001 nM with Hepatitis C virus [2]; 0.005 nM in the data set on Hepatitis C virus [3]; 0.06 nM in the data set with Hepatitis C virus [5]; 0.006 nM in the data set on Hepatitis C virus [4]. The compound further registered a bioavailability in [11] of 46%. Further, in [12], the area under the curve (AUC) was 13 µM·h.
For the compound `COC(=O)N[C@H](C(=O)N1CCC[C@H]1c1ncc(-c2ccc3c(c2)C=Nc2cc(-c4cnc([C@@H]5CCCN5C(=O)[C@@H](NC(=O)OC)C(C)C)[nH]4)ccc2O3)[nH]1)C(C)C`, the figures for the half-maximal effective concentration (EC50) in the data set on Hepatitis C virus [6], in the data set on Hepatitis C virus [7] and in the data set with Hepatitis C virus [8] were 0.5 nM, 55 nM and 40 nM, respectively.
In the case of `COC(=O)N[C@H](C(=O)N1CCC[C@H]1c1ncc(-c2ccc3c(c2)NC(=O)c2ccc(-c4cnc([C@@H]5CCCN5C(=O)[C@@H](NC(=O)OC)C(C)C)[nH]4)cc2O3)[nH]1)C(C)C`, the figures for the EC50 in the data set with Hepatitis C virus [6], in the data set with Hepatitis C virus [7] and with Hepatitis C virus [8] were 0.2 nM, 310 nM and 145 nM, respectively.
In the same order, the values of `COC(=O)N[C@H](C(=O)N1CCC[C@H]1c1ncc(-c2ccc3c(c2)C=Nc2ccc(-c4cnc([C@@H]5CCCN5C(=O)[C@@H](NC(=O)OC)C(C)C)[nH]4)cc2O3)[nH]1)C(C)C` are 0.06 nM, 55 nM and 220 nM.
As to `CCCC/C=C1/c2ccc(-c3cnc([C@@H]4CCCN4C(=O)[C@@H](NC(=O)OC)C(C)C)[nH]3)cc2Oc2ccc(-c3cnc([C@@H]4CCCN4C(=O)[C@@H](NC(=O)OC)C(C)C)[nH]3)cc21`, the EC50 with Hepatitis C virus [1] is 260 nM; in the data set on Hepatitis C virus [2], 0.006 nM; in the data set with Hepatitis C virus [3] it was 0.05 nM; in the data set on Hepatitis C virus [5], 0.4 nM; in the data set with Hepatitis C virus [4], above 0.1 nM.
In the case of `COC(=O)N[C@H](C(=O)N1CCC[C@H]1c1ncc(-c2ccc3c(c2)Oc2ccc(-c4cnc([C@@H]5CCCN5C(=O)[C@@H](NC(=O)OC)C(C)C)[nH]4)cc2C3C)[nH]1)C(C)C` (some centres not stated), the EC50 with Hepatitis C virus [2] came out at 0.009 nM; in the data set with Hepatitis C virus [3], 0.004 nM; in the data set with Hepatitis C virus [5] it was 0.08 nM; in the data set on Hepatitis C virus [4], 0.05 nM.
As to `COC(=O)N[C@H](C(=O)N1CCC[C@H]1c1ncc(-c2ccc3nc4cc(-c5cnc([C@@H]6CCCN6C(=O)[C@@H](NC(=O)OC)C(C)C)[nH]5)ccc4cc3c2)[nH]1)C(C)C`, the EC50 worked out at 1050 nM in the data set with Hepatitis C virus [1], 0.01 nM with Hepatitis C virus [2], 0.04 nM with Hepatitis C virus [3] and 0.05 nM in the data set with Hepatitis C virus [4].
In the case of `COC(=O)N[C@H](C(=O)N1CCC[C@H]1c1ncc(-c2ccc3c(C#N)c4cc(-c5cnc([C@@H]6CCCN6C(=O)[C@@H](NC(=O)OC)C(C)C)[nH]5)ccc4nc3c2)[nH]1)C(C)C`, the EC50 with Hepatitis C virus [6] stood at 0.01 nM; in the data set on Hepatitis C virus [7], 1 nM; with Hepatitis C virus [8], 0.3 nM.
Regarding `COC(=O)N[C@H](C(=O)N1CCC[C@H]1c1ncc(-c2ccc3c(c2)Oc2ccc(-c4cnc([C@@H]5CCCN5C(=O)[C@@H](NC(=O)OC)C(C)C)[nH]4)cc2N3c2ccccc2)[nH]1)C(C)C`, the EC50 is 0.008 nM with Hepatitis C virus [6], 3 nM in the data set with Hepatitis C virus [7] and 5 nM in the data set with Hepatitis C virus [8].
`COC(=O)N[C@H](C(=O)N1CCC[C@H]1c1ncc(-c2ccc3c(c2)Oc2ccc(-c4cnc([C@@H]5CCCN5C(=O)[C@@H](NC(=O)OC)C(C)C)[nH]4)cc2N3C)[nH]1)C(C)C`: the clearance in data set [9] worked out at 32 mL/min/kg. Further, the half-life in data set [10] is 1.2 h. Moreover, the EC50 in the data set with Hepatitis C virus [1] came out at 70 nM; in the data set on Hepatitis C virus [2], 0.007 nM; in the data set with Hepatitis C virus [3], 0.07 nM; with Hepatitis C virus [5], 0.3 nM; in the data set with Hepatitis C virus [4] it was 0.09 nM. The same compound came in with a bioavailability in data set [11] of 69%. In data set [12], this compound came in with an AUC of 2.8 µM·h.
Regarding `C/C=C1/c2ccc(-c3cnc([C@@H]4CCCN4C(=O)[C@@H](NC(=O)OC)C(C)C)[nH]3)cc2Oc2ccc(-c3cnc([C@@H]4CCCN4C(=O)[C@@H](NC(=O)OC)C(C)C)[nH]3)cc21`, the EC50 with Hepatitis C virus [1] is 9 nM; with Hepatitis C virus [2] it was 0.007 nM; in the data set on Hepatitis C virus [3], 0.03 nM; with Hepatitis C virus [5] it was 0.4 nM; in the data set with Hepatitis C virus [4], 0.06 nM.

The values above are taken from ChEMBL document CHEMBL3808305, “Discovery of fused tricyclic core containing HCV NS5A inhibitors with pan-genotype activity” (Bioorg Med Chem Lett, 2016).
